Results on seven molecules are retold here after patent US20030133931A1 (priority 2001, published 2003).

Assay [1] concerns the target guinea pig histamine H4 receptor (Cavia porcellus, UniProt Q91ZY3). Description: biochemical.
Assay [2] concerns the target rat histamine H4 receptor (Rattus norvegicus, UniProt Q91ZY1). The experiment in a line: biochemical.
The test system of assay [3] is Zymosan Induced Peritonitis in Mice. The note with it: for effect on PMN influx: H4 ANTAG #1 10 mg/kg, Imetit 5 mg/kg, thioperamide 5 mg/kg, 4 h after zymosan; for PMN (10^6 per mouse) Mean: group mean, s.c. at -15 min and +2 h (H4 ANTAG #1 10 mg/kg; Imetit, Thioperamide 5 mg/kg), lavage 4 h after zymosan.
The target of assay [4] is T1, human histamine H4 receptor (Homo sapiens, UniProt Q9H3N8). Description: biochemical.
T1 sequence (Q9H3N8 whole entry): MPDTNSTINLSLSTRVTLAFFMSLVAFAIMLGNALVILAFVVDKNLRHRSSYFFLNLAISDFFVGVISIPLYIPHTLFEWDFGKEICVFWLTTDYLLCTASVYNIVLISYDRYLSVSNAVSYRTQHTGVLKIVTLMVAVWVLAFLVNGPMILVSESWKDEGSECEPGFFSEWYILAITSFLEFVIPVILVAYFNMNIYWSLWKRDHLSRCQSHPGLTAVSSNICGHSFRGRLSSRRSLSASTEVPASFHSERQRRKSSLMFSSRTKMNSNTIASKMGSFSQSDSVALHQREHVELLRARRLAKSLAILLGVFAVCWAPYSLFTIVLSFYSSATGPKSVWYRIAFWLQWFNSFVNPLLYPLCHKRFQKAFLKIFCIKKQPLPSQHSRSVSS
The target of assay [5] is T1, human histamine H4 receptor. As to conditions: SK-N-MC or COS7 cells expressing human histamine H4 receptor.
For assay [6] the target is unchanged. The note with it: histamine 100 pM-100 uM; forskolin 3 uM; SK-N-MC cells.
Assay [7] has as its system Croton Oil Induced Topical Inflammation in Mice. As to conditions: 6 h after croton oil.

Chain of guinea pig histamine H4 receptor (Q91ZY3 1-389): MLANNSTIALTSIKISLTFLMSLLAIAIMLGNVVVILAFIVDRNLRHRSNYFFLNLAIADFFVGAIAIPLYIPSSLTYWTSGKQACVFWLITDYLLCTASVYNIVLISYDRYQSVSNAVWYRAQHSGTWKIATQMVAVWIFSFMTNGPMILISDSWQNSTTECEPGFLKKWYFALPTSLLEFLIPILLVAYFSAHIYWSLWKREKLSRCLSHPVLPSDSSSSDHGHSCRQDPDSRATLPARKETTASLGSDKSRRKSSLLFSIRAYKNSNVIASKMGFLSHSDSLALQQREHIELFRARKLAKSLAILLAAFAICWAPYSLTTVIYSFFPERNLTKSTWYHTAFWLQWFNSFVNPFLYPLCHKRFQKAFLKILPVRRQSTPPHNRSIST
Chain of rat histamine H4 receptor (Q91ZY1 whole entry): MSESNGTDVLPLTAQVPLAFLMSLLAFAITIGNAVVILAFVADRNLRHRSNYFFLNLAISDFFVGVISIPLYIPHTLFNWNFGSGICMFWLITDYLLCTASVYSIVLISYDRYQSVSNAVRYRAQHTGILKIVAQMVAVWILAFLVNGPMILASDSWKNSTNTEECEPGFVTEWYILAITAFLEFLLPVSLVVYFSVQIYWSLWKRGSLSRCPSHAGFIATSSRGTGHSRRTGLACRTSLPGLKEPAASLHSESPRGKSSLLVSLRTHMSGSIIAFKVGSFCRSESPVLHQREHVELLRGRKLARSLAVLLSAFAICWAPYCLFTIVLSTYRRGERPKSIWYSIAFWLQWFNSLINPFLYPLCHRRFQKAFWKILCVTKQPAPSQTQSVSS

Broadly, the Ki is the equilibrium dissociation constant of an inhibitor or competing ligand from its target. As to `N=C(N)SCCc1cnc[nH]1` [Imetit], the figures for the inhibitory constant (Ki) in assay [1], in assay [2] and in assay [4] were 30 nM, 6.8 nM and 1.3 nM, respectively. Moreover, the “effect on PMN influx” value in assay [3] was “inactive”. Besides, in assay [3], the “PMN (10^6 per mouse) Mean” value is 17.3 10^6 per mouse.

Consider ^3H-histamine, for which the “^3H-histamine binding” value in assay [5] is listed as “high affinity”.

On to `NCCc1c[nH]cn1` [Histamine], for which, in assay [1], the Ki turned out to be 27 nM. Moreover, the “activation of recombinant human histamine H4 receptor (decrease of forskolin-raised cAMP), words” value in assay [6] is listed as “specifically activated”.

Turning to `NC(=NCc1ccc(Cl)cc1)SCCCc1cnc[nH]1` [Clobenpropit], the inhibition constant (Ki) in assay [1] is 3.6 nM; in assay [2], 63 nM; in assay [4] it was 4.9 nM.

For the molecule `COc1ccc2c(c1)c(CC(=O)O)c(C)n2C(=O)c1ccc(Cl)cc1` [Indomethacin], the “Difference in ear thickness (×0.01 mm) Mean” value in assay [7] (group mean, s.c. ×3 (H4 ANTAG #1 10 mg/kg; Indomethacin 30 mg/kg)) worked out at 10.0 ×0.01 mm. For the same molecule, the “% inhib (ear swelling)” value in assay [7] (vs vehicle, s.c. ×3) is “(−40%)”.

On to `CNCCc1c[nH]cn1` [N-methylhistamine], for which the Ki in assay [1] is 220 nM; in assay [2], 552 nM; in assay [4], 48 nM.

Molecule `S=C(NC1CCCCC1)N1CCC(c2cnc[nH]2)CC1` [Thioperamide] showed an inhibition constant Ki in assay [1] of 83 nM. In assay [3], the “effect on PMN influx” value was “significant inhibitory effect” and the “PMN (10^6 per mouse) Mean” value is given as 9.3 10^6 per mouse. Also, the “% inhib (PMN)” value in assay [3] (vs PBS + zymosan, 4 h, doses as in Table 1, s.c.) was “(−46%)”.
